Results published in patent publication US10548858B2, “Inhibition of sphingosine 1-phosphate receptor for treatment and prevention of lymphedema” (Memorial Sloan Kettering Cancer Center, priority 2016, dated 2020).
Entries after “also recorded” stand apart in the source; their conditions may differ.

Columns and labels:
[1] = tested on: lymphedema (mouse tail lymphatic ablation); assay: Mouse tail skin/lymphatic ablation model of lymphedema, 6 weeks of treatment; format: in vivo; conditions: wild-type mice, 6 weeks after lymphatic ablation
Source text: To determine if FTY720 treatment can be useful for treating lymphedema, we next performed tail skin/lymphatic ablations on wild-type mice and treated experimental animals with FTY720 and control animals with vehicle only for 6 weeks.
To induce lymphedema, we used a mouse tail model in which a 5 vmm portion of the mid-tail is excised and the deep lymphatic collecting vessels are ligated. Avraham et al., Am. J. Pathol. 177:3202 (2010); Clavin et al., Am. J. Physiol. Heart Circ. Physiol. 295:H2113 (2008); Rutkowski et al., Microvasc. Res. 72:161 (2006); Tabibiazar et al., PloS Med 3:e254 (2006). This model reliably results in sustained tail swelling, severe impairment in lymphatic function, and histopathologic features consistent with clinical lymphedema, lasting as long as 10 weeks after surgery. Avraham et al., Am. J. Pathol. 177:3202 (2010); Clavin et al., Am. J. Physiol. Heart Circ. Physiol. 295:H2113 (2008); Rutkowski et al., Microvasc. Res. 72:161 (2006); Tabibiazar et al., PloS Med 3:e254 (2006). In other experiments, animals were randomized to either PLND or sham surgery. PLND was performed as previously reported, removing the nodes, surrounding fat pad, and afferent/efferent lymphatics. Control animals underwent sham popliteal surgeries where a skin incision was made in the area of the popliteal lymph node without nodal resection. Although sustained lymphedema is not observed here, it has previously been described as a means of analyzing regeneration of collateral lymphatics and collecting lymphatic pumping capacity. Proulx et al., Biomaterials 34:5128 (2013); Sharma et al., Am. J. Physiol. Heart and Circul. Physiol. 292:H3109 (2007).
In other experiments, WT mice underwent tail or popliteal lymphatic ablation surgeries and were subsequently randomized to treatment with FTY720 (Sigma Aldrich, St. Louis, Mo.), an […] modulator that blocks lymphocyte egress from lymph nodes. Metzler et al., Int. Immunol. 20:633 (2008); Kharel et al., J. Biol. Chem. 280:36865 (2005). Briefly, FTY720 was dissolved in water as per the manufacturer's recommendations, and supplied ad libitum starting the day of lymphatic ablation. Mice received an estimated 1.25 mg/kg/day for 2 or 6 weeks (for PLND or tail surgeries, respectively) until tissues were harvested. […]
Tail volumes were calculated weekly using the truncated cone formula. […]
Subcutaneous adipose tissue thickness measurements were analyzed by 2 blinded reviewers (n=5-6 animals/group) using standardized cross-sections by measuring from the width of tissues bounded by the reticular dermis to the deep fascia in 4 standardized regions per section. Capillary lymphatic vessel area was quantified as previously described using Panoramic viewer software (3DHistech, Budapest, Hungary) in four 40× high-power fields/animal per group. […]

[2] = tested on: CD4+ cells; assay: CD4+ cell flow cytometry of lymph nodes and hind limb skin after PLND and adoptive transfer, with or without FTY720; format: in vivo, mouse; conditions: CD4KO mice, PLND, 24 hours after adoptive transfer of CD4+ cells
Experimental: Metzler et al., Int. Immunol. 20:633 (2008); Kharel et al., J. Biol. Chem. 280:36865 (2005). Control animals were treated with vehicle alone.
To induce lymphedema, we used a mouse tail model in which a 5 vmm portion of the mid-tail is excised and the deep lymphatic collecting vessels are ligated. Avraham et al., Am. J. Pathol. 177:3202 (2010); Clavin et al., Am. J. Physiol. Heart Circ. Physiol. 295:H2113 (2008); Rutkowski et al., Microvasc. Res. 72:161 (2006); Tabibiazar et al., PloS Med 3:e254 (2006). This model reliably results in sustained tail swelling, severe impairment in lymphatic function, and histopathologic features consistent with clinical lymphedema, lasting as long as 10 weeks after surgery. Avraham et al., Am. J. Pathol. 177:3202 (2010); Clavin et al., Am. J. Physiol. Heart Circ. Physiol. 295:H2113 (2008); Rutkowski et al., Microvasc. Res. 72:161 (2006); Tabibiazar et al., PloS Med 3:e254 (2006). […]
Culture expanded naïve CD4^+ cells (1×10^7) were suspended in 100 μL of sterile phosphate buffered saline (PBS) and adoptively transferred to CD4KO mice by weekly retro-orbital sinus injections beginning two weeks after surgery for 2 or 4 weeks (for PLND or lymphatic tail ablation, respectively), followed by sacrifice. […] Delivery of CD4^+ cells was confirmed using flow cytometry to quantify CD4^+ cells in single cell suspensions created from spleens and aortic lymph nodes. […]

[3] = tested on: lymphedema; conditions: cited from earlier work
[4] = FTY720 estimated 1.25 mg/kg/day in water, vs vehicle

Structure (SMILES)	tail fibrosis (gross analysis) [1, 4]	tail swelling (gross analysis) [1, 4]	fibroadipose tissue deposition (thickness) ([1]; cross-sectional histology, vs vehicle control)	tail volumes (percentage change) ([1]; vs vehicle control)	CD4+ cells in the hind limb skin ([2]; vs vehicle treated PLND mice)	accumulation of CD4+ cells in the inguinal lymph node ([2]; vs vehicle, FTY720 in drinking water, estimated 1.25 mg/kg/day)	clinical success in patients with lymphedema [3]	toxicity ([3]; patients with lymphedema)
CCCCCCCCc1ccc(CCC(N)(CO)CO)cc1 [FTY720, 2-amino-2-[2-(4-octylphenyl)ethyl]propane-1,3-diol]	lack of swelling and fibrosis; also recorded: markedly decreased	lack of swelling; also recorded: markedly decreased	decreased fibroadipose tissue deposition; also recorded: significant decreases	lack of swelling; also recorded: significant decreases	decreased the number of these cells in hind limb skin; also recorded: marked decrease	prevented release of CD4+ cells from the lymph node; also recorded: increased significantly	–	–
O=c1ccc2ccccc2o1 [Coumarin]	–	–	–	–	–	–	modest success	significant toxicity including liver failure and death
